This is an account of results in paper PMC6315844, “Two Novel Multi-Functional Peptides from Meat and Visceral Mass of Marine Snail Neptunea arthritica cumingii and Their Activities In Vitro and In Vivo” (Marine Drugs, 2018).

No end group written: not given here.

The nature of data set [1]: Thermal stability of synthetic peptides (DPPH and ACE activity retained). Type of data set: physicochemical. As to conditions: incubated at 20, 40, 60 and 80 °C, samples 90 to 1800 μg/mL, p > 0.05.
Experimental: A series of samples with concentration range from 90 μg/mL (corresponding to 69.28 μM and 93.26 μM for [sequence] and [sequence], respectively) to 1800μg/mL were used in stability analysis.
For data set [2] the following is noted: synthetic peptides; simulated gastrointestinal digestion; samples 90 to 1800 μg/mL; p > 0.05. On the procedure:
A series of samples with concentration range from 90 μg/mL (corresponding to 69.28 μM and 93.26 μM for […] and […], respectively) to 1800μg/mL were used in stability analysis.
Thermal stability and gastrointestinal digestion stability of two synthetic peptides were determined according to Chen et al.. The incubated temperature for peptide solutions was set as 20, 40, 60, and 80 °C, respectively. DPPH radical scavenging activities and ACE inhibitory activities of the peptide solutions were measured as the above description.

Data set [3] has as its target α-glucosidase (from yeast). Kind of data set: α-Glucosidase inhibitory activity. The data set is classed as biochemical. As to conditions: natural purified peptide; Figure 3a; tests repeated three times; read-out: EC50 values of active peptides: α-glucosidase. From the text: (§1) DPPH, angiotensin-converting enzyme (0.25 U·mL^−1, from the rabbit lung), N-hippuryl-His-Leu hydrate (HHL), hippuric acid, and amino acid standards were purchased from Sigma-Aldrich (Shanghai, China). α-Glucosidase protease (50 U/mg, from yeast), α-amylase protease (50 U/mg, from Bacillus subtilis), acarbose, 4-nitrophenyl-β-D-galactopyranoside, 6-aminoquinolyl-N-hydroxysuccinimidyl carbamate (AQC), ribonuclease (13,700 Da, from the bovine pancreas), aprotinin hydrochloride (6511 Da, from the bovine lung), angiotensin II (1046 Da), and L-serine (105 Da) were purchased from Yuanye Biological Technology Co. (Shanghai, China). Trypsin (250 U/mg), pepsin (250 U/mg), Sephadex G25 gel, nifedipine, and vitamin C were purchased from Solarbio (Beijing, China). Transgenic zebrafish Tg (krt4:NTR-hKikGR)^cy17 are maintained in our lab. All chemicals and reagents used for HPLC were of chromatographic grade and other chemicals and reagents were of analytical grade.
(§2) α-Amylase and α-glucosidase inhibitory activities were assayed as described by Uraipong et al.. Acarbose was used as a positive control. The inhibitory activity of active peptides was expressed as the EC50 value.

Data set [4] deals with Tg (krt4:NTR-hKikGR)cy17 zebrafish. Nature of the data set: In vivo antioxidant activity in MTZ-treated transgenic zebrafish embryos (skin fluorescent spots). On the set-up: species or system zebrafish (Danio rerio). Particulars: 10 mM MTZ, 24 h, 28 °C, n = 10. From the text: For Tg (krt4:NTR-hKikGR)^cy17 zebrafish, MTZ treatment can lead to ROS overproduction, apoptosis of skin cells, and reduction of fluorescence spots on skin; thus, this model is used to assess ROS scavenging capacity of sample by measuring the growth rate of fluorescent spots (FS) on the skin of Tg (krt4:NTR-hKikGR)^cy17 transgenic zebrafish. Sample with antioxidant activity can remove ROS from transgenic zebrafish and prevent the skin cell apoptosis.
The number of fluorescence spots on the skin will increase after incubation with antioxidant. Thus, we can evaluate the ROS scavenging ability of samples on the basis of changes in the number of fluorescence spots compared with the MTZ-treatment. The in vivo antioxidant activity of the active peptides was evaluated according to previously described methods with some modification using the transgenic zebrafish line Tg (krt4:NTR-hKikGR)^cy17. Twenty-four-hour-old transgenic zebrafish embryos were added to 24-well cell culture plates (10 embryos/well) and incubated with 2 mL of 10 mM MTZ (dissolved in fish water) and active peptides for 24 h at 28 °C. […] After incubation, zebrafish embryos were anesthetized with tricaine (0.16%, w/v), and fluorescence was observed using an FSX100 Bio Imaging Navigator instrument. FS were counted using ImagePro-Plus, and the in vivo antioxidant activity (%) of active peptides was determined by Equation 1. […]

Data set [5] has as its system α-amylase (from Bacillus subtilis). Nature of the data set: α-Amylase inhibitory activity. The data set is classed as biochemical. Particulars: for α-Amylase Inhibitory Activity (%): fractions purified from M-F and VM-F using HILIC, all at the same concentration (not given), n = 3, mean ± SD; for EC50: natural purified peptide, Figure 3a, tests repeated three times, read-out: EC50 values of active peptides: α-amylase.
Text: as §1, §2

The nature of data set [6]: Ferric reducing capacity (reducing power, FRAP). Particulars: natural purified peptide, Figure 3a, tests repeated three times, read-out: EC50 values of active peptides: FRAP. The protocol: The reducing power of the peptide fractions was assayed as described by Moayedi et al.. Vitamin C was used as a positive control. The reducing power of active peptides was assayed by determining EC50 values.

Regarding “YIAEDAER [VM-P7, Tyr-Ile-Ala-Glu-Asp-Ala-Glu-Arg]”, the “effect of thermal treatment on EC50 values of DPPH radical scavenging and ACE inhibitory activities” value in data set [1] was “have thermal and gastrointestinal stability”. For the same sequence, the “effect of gastrointestinal digestion treatment on EC50 values of DPPH radical scavenging and ACE inhibitory activities” value in data set [2] was “have thermal and gastrointestinal stability”. For the same sequence, the concentration for a half-maximal effect (EC50) is 823 µM in data set [3], 942 µM in data set [5] and 856 µM in data set [6]. For the same sequence, the “number of fluorescent spots (FS) compared with negative control (MTZ without peptides)” value in data set [4] (low concentration) is given as “no significant difference”. In addition, in data set [5], the “α-Amylase Inhibitory Activity (%)” value worked out at 53.85 ± 0.92%.
As for “YSQLENEFDR [M-P6, Tyr-Ser-Gln-Leu-Glu-Asn-Glu-Phe-Asp-Arg]”, the “effect of thermal treatment on EC50 values of DPPH radical scavenging and ACE inhibitory activities” value in data set [1] was “have thermal and gastrointestinal stability”. Besides, the “effect of gastrointestinal digestion treatment on EC50 values of DPPH radical scavenging and ACE inhibitory activities” value in data set [2] was “have thermal and gastrointestinal stability”. Further, the concentration giving a half-maximal response (EC50) is 589 µM in data set [3], 692 µM in data set [5] and 430 µM in data set [6]. Moreover, the “number of fluorescent spots (FS) compared to the control group (no MTZ or peptides)” value in data set [4] (high concentration) is “more FS were detected”. For the same sequence, the “α-Amylase Inhibitory Activity (%)” value in data set [5] is recorded as 56.15 ± 1.64%.
